Assay results taken from ChEMBL document CHEMBL1157539, “Thousands of chemical starting points for antimalarial lead identification” (Nature, 2010).
Where “and” joins values, the source holds several entries; their conditions need not be identical. Equal entries are not always repeated. Structures can show the parent of a compound that is named as a salt.

Tested on: Plasmodium falciparum
Assay: GSK_TCMDC: Inhibition of Plasmodium falciparum 3D7 in whole erythrocytes, using parasite LDH activity as an index of growth.
Format: functional, organism-based

Structure (SMILES)	XC50 (Plasmodium falciparum, 3D7) [nM]	XC50
Cc1cccc2nc(-c3cccc(-c4cccc(NC(=O)Cc5c[nH]cn5)c4)c3)[nH]c12	675	
COc1ccc(NC(=O)[C@H](CC(C)C)Nc2cc(C)nc(NCCc3cccs3)n2)cc1	964	
Cc1cc(Cc2ccc(S(=O)(=O)c3cc4c(cc3O)CCN(C)CC4)cc2)ccc1Cl	911	
COc1ccc2cc(C(=O)NC3CCC(CCN4CCc5cc(C#N)ccc5C4)CC3)[nH]c2c1 (centres undefined)	1010	
COc1ccc(NC(=O)/C=C/c2ccccc2Cl)cc1OCCN1CCC(NCc2ccccc2)CC1	352	
Nc1c2ccccc2nc2ccc(Cl)cc12	805	
O=C(C=CC(=O)N1CCCCC1)NCc1ccccc1	732	
O=C(NCC1CCN(Cc2ccc3c(c2)OCCO3)C1)c1cc(-c2cccc(C(F)(F)F)c2)cs1 (centres undefined)	978	
OC(CNc1ccnc(Nc2ccccc2)n1)c1cccc(C(F)(F)F)c1 (centres undefined)	646	
Cc1sc(CNCCCNc2cc(=O)c3ccccc3[nH]2)cc1Br	764	
CC(CCc1ccccc1)NCC(O)c1ccc2c3c(cccc13)C(=O)N2C (centres undefined)	812	
FC(F)(F)c1ccc(CSc2ccc3nnc(-c4ccccn4)n3n2)cc1	817	
CC(C)NCC(O)Cn1c2ccc(Br)cc2c2cc(Br)ccc21 (centres undefined)	451	
CC[C@H]1CN2CC[C@H]1C[C@H]2[C@H](O)c1cc(-c2ccc3ccccc3c2)nc2ccc(OC)cc12	104	
O=C(NC1CC1)c1ccc(N2CCC(Cc3ccccc3)CC2)c([N+](=O)[O-])c1	614	
O=C(NCCCCN1CCC(c2c[nH]c3ccccc23)CC1)c1sc(-c2ccc(C(F)(F)F)cc2)nc1CO	1200	
N#Cc1ccc(N[C@@H](CC2CCCCC2)C(=O)Nc2ccc(-c3ccccc3)cc2)c2ccccc12	597	
COc1ccc2nccc(N3CCC(SCCNCc4ccc5c(n4)NC(=O)CO5)C3)c2n1 (centres undefined)	801	
N#Cc1cccc(NC(=O)Nc2ccc(CC(=O)N3CCc4cc(Cl)c(N5CCN(C/C=C/c6ccccc6)CC5)cc43)cc2)c1	875	
N=C(NCCCCCCNC(=N)NC(=N)c1ccc(Cl)cc1)NC(=N)c1ccc(Cl)cc1	212	
O=C(Nc1ccnc(-c2cccnc2)n1)c1cc(C(F)(F)F)cc(C(F)(F)F)c1	823	
COc1ccc(CCN(C)CCOc2ccc(NC(=O)COc3ccc4sc5ccccc5c(=O)c4c3)cc2)cc1OC	1100	
CNCCCCCCOc1ccc(CC(C)NCC(O)c2cccc(C(F)(F)F)c2)cc1 (centres undefined)	884	
Cc1ccc(CCOCCCCCNCC(O)c2cc(Cl)c(N)c(Cl)c2)cc1 (centres undefined)	945	
COc1ccc(C2C(C(=O)Nc3ccc(C)c(F)c3)c3cc(OC)c(OC)cc3C(=O)N2C)cc1 (centres undefined)	956	

Structure (SMILES)	XC50 (Plasmodium falciparum, 3D7) [nM]	XC50
COc1cccc2sc(Nc3nc(-c4ccccn4)cs3)nc12	805	
O=[N+]([O-])c1cccc(S(=O)(=O)N2CCN(CC(O)COc3ccc(-c4ccccc4)cc3)CC2)c1 (centres undefined)	1360	
COc1ccnc(NCCCNCc2cn(S(=O)(=O)c3ccccc3)c3ccccc23)c1	790	
CCCCCCCc1cc(=O)c2ccccc2[nH]1	317	
COc1ccc2nccc([C@@H](O)CN3CCC(NC(=O)C(c4cc5ccccc5o4)N4CCN(Cc5ccccc5)CC4)CC3)c2c1 (some centres undefined)	163	
COc1ccccc1CCNc1nc(C)cc(NCCC(=O)Nc2ccccc2)n1	806	
FC(F)(F)c1ccc2c(NCCNc3ccnc4cc(C(F)(F)F)ccc34)ccnc2c1	32.7	
O=C(Nc1cccc(C(F)(F)F)c1)NC1CCN(c2ccnc3ccccc23)C1 (centres undefined)	289	
CC(C)(C)C1=CC(=NNC(=O)c2ccncc2)C=C(C(C)(C)C)C1=O	704	
Fc1ccc2[nH]c(-c3ccc(-c4ccc(CN5CCN(c6ccncc6)CC5)cc4)cc3)nc2c1	251	
CCOc1cc(C(=O)Nc2ccc(-c3nc4ccccc4[nH]3)cc2)cc(OCC)c1OCC	234	
Nc1ncc(-c2ccc(S(=O)(=O)Nc3ccc(C(=O)N[C@@H](CCC(=O)O)C(=O)O)cc3)cc2)c(=O)[nH]1	803	
COc1ccc2c(c1)S(=O)(=O)N=C(N1CCCC1c1ccc(Cl)c(Cl)c1)N2C (centres undefined)	1280	
CC(C)(C)c1ccc(CN2CCC(NC(=O)c3ccc(-c4cccc(Cl)c4)s3)CC2)cc1	1070	
O=C(Nc1ccc(-c2ccc(-c3nc4cc(C(F)(F)F)ccc4[nH]3)s2)cc1)c1c[nH]cn1	670	
CCCCN(CCCC)C(=N)c1cccc2c1CCCC2	1560	
N#Cc1ccc(N(CC(=O)NCCc2ccccc2)CC2CC2)c2ccccc12	734	
Fc1ccc2[nH]c(-c3ccc(-c4ccc(CNCCc5cccnc5)cc4)s3)nc2c1	236	
COc1ccc(Cn2c(Nc3cccc(C(F)(F)F)c3)nc3cc(C(=O)NC4CC4)cnc32)cc1Cl	727	
Cc1[nH]c(C)c(-c2ccc(Oc3ccc(OC(F)(F)F)cc3)cc2)c(=O)c1Br		563 nM and 112 nM
COc1ccc2[nH]ccc(=NN=Cc3cccc(F)c3)c2c1	750	
CCOC(=O)c1nc(-c2ccccc2)[nH]c1NC(=S)NC1CCCCC1	836	
CCn1c(CN2CCC(C)CC2)nc2cc(NC(=O)c3cccs3)ccc21	565	
Cc1cc(C=C(P(=O)(OC(C)C)OC(C)C)P(=O)(OC(C)C)OC(C)C)c2ccccc2c1O	1080	
CCCOc1ccc(C=C(CC(=O)O)c2nc3ccccc3s2)cc1OCC	554	

Structure (SMILES)	XC50 (Plasmodium falciparum, 3D7) [nM]	XC50
COc1cc(C(F)(F)F)c2cc(CNCCCNc3nc4ccccc4[nH]3)[nH]c2c1	305	
OC(CNc1ccnc(Nc2cccc(Cl)c2)n1)c1ccccc1C(F)(F)F (centres undefined)	902	
Fc1ccccc1C=NN=c1cc[nH]c2ccccc12	894	
COc1ccc(NC(=O)c2csc(-c3cc(NC(=O)c4ccnc(N5CCCC5)c4)ccc3C)c2)cc1N1CCN(C)CC1	660	
Cc1cc(N2CCCC2)nc(Nc2ccc(NC(=O)C3CCCC3)cc2)n1	1110	
O=C1NC(=O)C(c2cccc(NC(=O)c3ccncc3)c2)=C1c1ccccc1	735	
CCCCCC(C)C(C)c1cc(O)c2c(c1)OC(C)(C)CC2=Cc1ccncc1 (centres undefined)	213	
N#Cc1ccc2[nH]c(-c3cc(-c4cccc(F)c4)cnc3N)nc2c1	193	
Cc1ccc2ccccc2c1CCCON1C(=N)N=C(N)NC1(C)C	3.2	
CC[C@H]1CN2CCc3cc(OC)c(OC)cc3[C@@H]2C[C@@H]1C[C@H]1NCCc2c1cc(OC)c(O)c2I	216	
CC(=O)Oc1c(Cl)c(C)nc(C)c1-c1ccc(Oc2ccc(OC(F)(F)F)cc2)cc1	96.2	
CCOc1cc(CC)ccc1C1CCN(CCN2CCC(NC(=O)c3ccc(-c4ccc(C(C)=O)cc4)cc3)CC2)CC1	226	
CCCC(C)Nc1nc(C)cc(N[C@@H](CC(C)C)C(=O)NCc2ccc(C)cc2)n1 (some centres undefined)	1010	
NC1CCN(c2nc(NCCc3ccc(O)cc3)nc(NCc3ccccc3-c3ccc(C(F)(F)F)cc3)n2)CC1	746	
COc1ccc(CSC2CCCCC23NC(=S)NC3=S)cc1 (centres undefined)	850	
N=C(N)NN=Cc1ccccc1OCc1ccccc1Cl	718	
CC(C)(CNCCOc1ccc(Cl)cc1)c1nc(-c2ccnc(N)n2)c(-c2ccc(Cl)c(O)c2)[nH]1	834	
Cc1ccc(O)cc1Nc1ccnc2cc(-c3ccncc3)ccc12	723	
CC(=O)Nc1ccc(CN2Cc3ccc(NC(=O)Nc4ccc(Oc5ccccc5)cc4)cc3C2)s1	918	
O=C(NC1CCCCC1)C(c1cccs1)N(CCc1ccccc1)C(=O)c1ccco1 (centres undefined)	1040	
CCN(CC)c1ccc2nc(N)nc(N)c2c1Cl	30.9	
COc1ccc2[nH]c(C)cc(=NN=Cc3ccccc3Cl)c2c1	601	
CCN(CC)CCCC(C)Nc1c(-c2ccc(OC)cc2)cnc2ccccc12 (centres undefined)	894	
O=C(/C=C/c1ccc(Cl)c(Cl)c1)NCCCCCN1CCCN(C(=O)Nc2ccc(Br)cc2)CC1	777	
CS(=O)(=O)CCNCc1ccc(-c2ccc3c(Nc4ccc(F)cc4Cl)ccnc3c2)o1	744	

Structure (SMILES)	XC50 (Plasmodium falciparum, 3D7) [nM]	XC50
O=C1CCCN1CCCNCc1cccc(-c2ccc(-c3nc4cc(C(F)(F)F)ccc4[nH]3)cc2)c1	300	
CCc1cn2c3c(cc(C(=O)N[C@@H](Cc4ccccc4)[C@H](O)CNC(C)(C)c4cccc(OC)c4)cc13)N(C)S(=O)(=O)C2	61.7	
CN(C(=O)/C=C/c1c(Cl)cccc1Cl)C1CCN(CCCCCNC(=O)/C=C/c2ccc(Cl)c(Cl)c2)CC1	360	
c1ccc(C(c2cccs2)N2CCN(Cc3ccc(OCCCN4CCCCC4)cc3)CC2)cc1 (centres undefined)	1230	
COc1ccc2nccc([C@@H](O)CN3CCC(NCc4ccc5c(c4)OCCO5)CC3)c2c1	288	
CC1CCN(C(=O)CSc2nc(-c3ccc(C(C)C)cc3)no2)CC1	1350	
NC1CCN(CCc2ccc(NS(=O)(=O)c3cccc4ccccc34)cc2)CC1	1700	
O=C(/C=C/c1ccc(Cl)c(Cl)c1)NCCCCCN1CCC(NC(=O)Nc2ccc(Cl)cc2Cl)CC1	640	
COc1cccc(CC(C)NCC(O)c2cccc(Cl)c2)c1 (centres undefined)	1270	
Cc1ccc2c(c1)NCC21CCN(C[C@@H](O)C2CCN(c3ccnc(Cl)c3)CC2)CC1C (some centres undefined)	940	
N=C(N)c1ccc(OCCCCCOc2ccc(C(=N)N)cc2)cc1 [PENTAMIDINE HYDROCHLORIDE]	140	
Cc1ccc(NC(=O)NC2CCN(c3ccnc4cc(Cl)ccc34)C2)cc1 (centres undefined)	149	
CN1CCN(c2ccnc3ccc(NC(=O)Nc4ccccc4Br)cc23)CC1	372	
O=[N+]([O-])c1nc(Br)n(Cc2ccc(Cl)cc2)n1	360	
CCCCOC(=O)[C@H](CCC)NC(=O)c1ccc(NS(=O)(=O)c2ccc3nc(N)[nH]c(=O)c3c2)cc1	198	
CCCCC1=CC2C(=O)C(C(=O)OC)=CN=C2C=C1OCc1ccccc1 (centres undefined)	42.2	
CCC1CCCCN1S(=O)(=O)c1ccc(OC)c(N2CCN(C(=O)C(Cl)(Cl)Cl)CC2)c1 (centres undefined)	1120	
COc1ccc(-n2c(=O)c3c(n4c(SC(C)C)nnc24)-c2ccccc2CC32CCCCC2)cc1	502	
CCCC1(NC[C@@H](O)[C@H](Cc2ccccc2)NC(=O)c2cc(NCC)cc(N3CCCCS3(=O)=O)c2)CCC1	720	
NS(=O)(=O)c1cncc(-c2ccc3nccc(-c4cn[nH]c4)c3n2)c1	526	
N#Cc1ccc2c(c1)CCN(CCC1CCC(NC(=O)Nc3ccncc3)CC1)C2 (centres undefined)	1130	
CCN1CCC(N(Cc2ccc(-c3ccc(C(F)(F)F)cc3)cc2)C(=O)Cn2c(SCc3ccc(F)cc3)nc(=O)c3c2CCC3)CC1	991	
COc1nc(Nc2cccc(C)c2)nc(OC)n1	1010	
CC(C)(C)n1nnnc1C(c1cccnc1)N(Cc1ccccc1)Cc1ccc(Cl)cc1 (centres undefined)	744	
